Experimental data: patent US11234982B2, “Methods for treating ocular surface pain” (NOVARTIS AG, priority 2019, dated 2022)

Tested on: healthy volunteers
Assay: First in human study Part 2: MAD, incidence of adverse events and MTD
Assay type: in vivo
Details: for AEs leading to discontinuation of: nE / AEs leading to discontinuation of: nS (%) / AEs of Mild severity: nE / AEs of Mild severity: nS (%) / AEs of Moderate: nE / AEs of Moderate: nS (%) / AEs, Subjects with AEs: nE (AE events) / AEs, Subjects with AEs: nS (%) (subjects with at least one AE) / Serious AEs: nE / Serious AEs: nS (%) / Study drug-related AEs: nE / Study drug-related AEs: nS (%) / Study-drug related AEs (last line of Table 2): nE / Study-drug related AEs (last line of Table 2): nS (%): MAD, N = 6
Procedure: Part 2 tested multiple ascending doses (MAD) of compound I, administering (i) 1 drop of 0.15%, 1.5%, 2.5%, 4 times daily (every 6 hours) for 7 days or (ii) 1 drop of 2.5%, 8 times daily (every 3 hours) for 7 days (supra-therapeutic dose) as eye drops.
Safety assessments: Safety assessments consisted of collecting all adverse events (AEs), serious adverse events (SAEs), including systemic and ocular adverse events, along with their severity and relationship to study drug. Systemic safety assessments included regular monitoring of hematology, blood chemistry and urinalysis performed at study center and regular assessments of physical examination, vital signs (systolic and diastolic blood pressure, pulse rate, and body temperature), ECG, pregnancy and assessments of fertility and hand immersion test at 49° C. during MAD part. Ocular safety assessments included early treatment diabetic retinopathy study (ETDRS) visual acuity, intraocular pressure, slit-lamp biomicroscopy, corneal staining and dilated fundus exam.
Inclusion Criteria: • Written informed consent was obtained before any assessment was performed. • Healthy male and female subjects aged 18 to 50 years (inclusive), and in good health as determined by past medical history, physical examination, vital signs, ECG, and laboratory tests at Screening. • At Screening, and Baseline, vital signs (systolic and diastolic blood pressure (BP) and pulse rate) were assessed in the sitting position after the subject had rested for at least 3 minutes and again after 3 minutes in the standing position. […] BMI=Body weight (kg)/[Height (m)]^2 • Subjects who were able to communicate well with the Investigator, to understand and comply with the requirements of the study. • For Part 3, subjects Baseline levels of eye sensitivity were to be in the range of 50 to 60 mm (inclusive) as measured by the Cochet-Bonnet esthesiometer.
History of any chronic eye disease other than refractive error, incipient cataract, strabismic amblyopia, or anisometropic amblyopia. Subjects with a history of acute eye disease (such as infection, corneal abrasion or allergy) within the past 6 months from Screening were eligible if the disease was not active. • Any currently active ocular condition that required use of topical eye drops. • Subjects using continuous positive airway pressure or other sleep apnea devices.

For `CC(C)c1nc2cc(O)ccc2c(=O)n1-c1ccc(C#N)cc1` [Compound I, 4-(7-hydroxy-2-isopropyl-4-oxo-4H-quinazolin-3-yl)-benzonitrile], the “Dose limiting adverse events” value (2.5%, 8 times daily for 7 days) was “No dose limiting adverse events were identified”, the “AEs leading to discontinuation of: nE” value (0.15% 4 times daily for 7 days) was 0 and the “AEs leading to discontinuation of: nS (%)” value (“AEs leading … (%)” for short) (0.15% 4 times daily for 7 days) was 0 (0.0) nS (%). For the same compound, the “AEs of Mild severity: nE” value (0.15% 4 times daily for 7 days) was 6, the “AEs of Mild severity: nS (%)” value (0.15% 4 times daily for 7 days) was 3 (50.0) nS (%) and the “AEs of Moderate: nE” value (0.15% 4 times daily for 7 days) was 0. For the same compound, the “AEs of Moderate: nS (%)” value (0.15% 4 times daily for 7 days) was 0 (0.0) nS (%), the “AEs, Subjects with AEs: nE (AE events)” value (0.15% 4 times daily for 7 days) was 6 and the “AEs, Subjects with AEs: nS (%) (subjects with at least one AE)” value (“AEs, Subjects with AEs: nS (%)” for short) (0.15% 4 times daily for 7 days) was 3 (50.0) nS (%). The “Serious AEs: nE” value (0.15% 4 times daily for 7 days) was 0, 0, the “Serious AEs: nS (%)” value (0.15% 4 times daily for 7 days) was 0, 0 nS (%) and the “Study drug-related AEs: nE” value (0.15% 4 times daily for 7 days) was 5. For the same compound, the “Study drug-related AEs: nS (%)” value (0.15% 4 times daily for 7 days) was 2 (33.3) nS (%), the “Study-drug related AEs (last line of Table 2): nE” value (0.15% 4 times daily for 7 days) was 0 and the “Study-drug related AEs (last line of Table 2): nS (%)” value (from here on “Study-drug related AEs … (%)”) (0.15% 4 times daily for 7 days) was 0 (0.0) nS (%). For the same compound, the “AEs leading to discontinuation of: nE” value (1.5% 4 times daily for 7 days) was 0, the “AEs leading … (%)” value (1.5% 4 times daily for 7 days) was 0 (0.0) nS (%) and the “AEs of Mild severity: nE” value (1.5% 4 times daily for 7 days) was 11. The “AEs of Mild severity: nS (%)” value (1.5% 4 times daily for 7 days) was 5 (83.3) nS (%), the “AEs of Moderate: nE” value (1.5% 4 times daily for 7 days) was 1 and the “AEs of Moderate: nS (%)” value (1.5% 4 times daily for 7 days) was 1 (16.7) nS (%). For the same compound, the “AEs, Subjects with AEs: nE (AE events)” value (1.5% 4 times daily for 7 days) was 12, the “AEs, Subjects with AEs: nS (%)” value (1.5% 4 times daily for 7 days) was 5 (83.3) nS (%) and the “Serious AEs: nE” value (1.5% 4 times daily for 7 days) was 0. For the same compound, the “Serious AEs: nS (%)” value (1.5% 4 times daily for 7 days) was 0 (0.0) nS (%), the “Study drug-related AEs: nE” value (1.5% 4 times daily for 7 days) was 9 and the “Study drug-related AEs: nS (%)” value (1.5% 4 times daily for 7 days) was 3 (50.0) nS (%). For the same compound, the “Study-drug related AEs (last line of Table 2): nE” value (1.5% 4 times daily for 7 days) was 0, the “Study-drug related AEs … (%)” value (1.5% 4 times daily for 7 days) was 0 (0.0) nS (%) and the “AEs leading to discontinuation of: nE” value (2.5% 4 times daily for 7 days) was 1, 1. For the same compound, the “AEs leading … (%)” value (2.5% 4 times daily for 7 days) was 1, 1 nS (%), the “AEs of Mild severity: nE” value (2.5% 4 times daily for 7 days) was 3 and the “AEs of Mild severity: nS (%)” value (2.5% 4 times daily for 7 days) was 2 (33.3) nS (%). For the same compound, the “AEs of Moderate: nE” value (2.5% 4 times daily for 7 days) was 1, the “AEs of Moderate: nS (%)” value (2.5% 4 times daily for 7 days) was 1 (16.7) nS (%) and the “AEs, Subjects with AEs: nE (AE events)” value (2.5% 4 times daily for 7 days) was 4. The “AEs, Subjects with AEs: nS (%)” value (2.5% 4 times daily for 7 days) was 2 (33.3) nS (%), the “Serious AEs: nE” value (2.5% 4 times daily for 7 days) was 0 and the “Serious AEs: nS (%)” value (2.5% 4 times daily for 7 days) was 0 (0.0) nS (%). For the same compound, the “Study drug-related AEs: nE” value (2.5% 4 times daily for 7 days) was 4, the “Study drug-related AEs: nS (%)” value (2.5% 4 times daily for 7 days) was 2 (33.3) nS (%) and the “Study-drug related AEs (last line of Table 2): nE” value (2.5% 4 times daily for 7 days) was 1. The “Study-drug related AEs … (%)” value (2.5% 4 times daily for 7 days) was 1 (16.7) nS (%), the “AEs leading to discontinuation of: nE” value (2.5% 8 times daily for 7 days) was 0 and the “AEs leading … (%)” value (2.5% 8 times daily for 7 days) was 0 (0.0) nS (%). For the same compound, the “AEs of Mild severity: nE” value (2.5% 8 times daily for 7 days) was 3, the “AEs of Mild severity: nS (%)” value (2.5% 8 times daily for 7 days) was 2 (33.3) nS (%) and the “AEs of Moderate: nE” value (2.5% 8 times daily for 7 days) was 0. For the same compound, the “AEs of Moderate: nS (%)” value (2.5% 8 times daily for 7 days) was 0 (0.0) nS (%), the “AEs, Subjects with AEs: nE (AE events)” value (2.5% 8 times daily for 7 days) was 3 and the “AEs, Subjects with AEs: nS (%)” value (2.5% 8 times daily for 7 days) was 2 (33.3) nS (%). For the same compound, the “Serious AEs: nE” value (2.5% 8 times daily for 7 days) was 0, the “Serious AEs: nS (%)” value (2.5% 8 times daily for 7 days) was 0 (0.0) nS (%) and the “Study drug-related AEs: nE” value (2.5% 8 times daily for 7 days) was 2. For the same compound, the “Study drug-related AEs: nS (%)” value (2.5% 8 times daily for 7 days) was 1 (16.7) nS (%), the “Study-drug related AEs (last line of Table 2): nE” value (2.5% 8 times daily for 7 days) was 0 and the “Study-drug related AEs … (%)” value (2.5% 8 times daily for 7 days) was 0 (0.0) nS (%). The “Severity of adverse events of suspected causality to compound I” value (Parts 1, 2 and 3, exception in the 2.5% 4 times daily cohort) was “mild severity, except for moderate severity eye irritation”, the “Most frequent ocular adverse events” value (compound I treated, compared with placebo) was “corneal staining, hyperemia and mild anterior chamber inflammation, in levels similar to placebo” and the “Maximum Tolerated Dose (MTD)” value (maximum feasible concentration, 8 times daily for 7 days, eye drops) was 2.5%.
